Assay results reported in ChEMBL document CHEMBL1201862, “PubChem BioAssay data set” (2004).
Counter-ions that a name gives are not always drawn.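 Five compound concentrations were applied to cells in 96-well plates for 48 hours; endpoints were derived by simple linear interpolation of the resulting dose-response curve. GI50 is the concentration that inhibits growth by half.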 Active and inactive are the calls of the source. No stated cut-off is given here; in the data, active = GI50 up to about 1.1 µM and inactive = higher.

Columns and labels:
Test in all cases: NCI-60 cell line screen, 48 h
XF498 = tested on: XF498
HL-60 = tested on: HL-60
SF-268 = tested on: SF-268
HOP-62 = tested on: HOP-62
UACC-62 = tested on: UACC-62
DMS-273 = tested on: DMS-273
SK-MEL-2 = tested on: SK-MEL-2
HOP-18 = tested on: HOP-18
LXFL 529 = tested on: LXFL 529
ACHN = tested on: ACHN
SN12C = tested on: SN12C
HOP-92 = tested on: HOP-92
SNB-75 = tested on: SNB-75
SK-MEL-28 = tested on: SK-MEL-28
KM12 = tested on: KM12
Malme-3M = tested on: Malme-3M
SR = tested on: SR
HCT-116 = tested on: HCT-116
DMS-114 = tested on: DMS-114
LOX IMVI = tested on: LOX IMVI
NCI-H460 = tested on: NCI-H460
RXF 393 = tested on: RXF 393
786-0 = tested on: 786-0
OVCAR-4 = tested on: OVCAR-4
U-251 = tested on: U-251
CAKI-1 = tested on: CAKI-1
HT-29 = tested on: HT-29
TK-10 = tested on: TK-10
EKVX = tested on: EKVX
OVCAR-8 = tested on: OVCAR-8
COLO 205 = tested on: COLO 205
HCT-15 = tested on: HCT-15
UACC-257 = tested on: UACC-257
NCI-H226 = tested on: NCI-H226
OVCAR-5 = tested on: OVCAR-5
SK-MEL-5 = tested on: SK-MEL-5
HCC 2998 = tested on: HCC 2998
NCI-H23 = tested on: NCI-H23
SNB-78 = tested on: SNB-78
CCRF-CEM = tested on: CCRF-CEM
KM-20L2 = tested on: KM-20L2
K562 = tested on: K562
OVCAR-3 = tested on: OVCAR-3
A498 = tested on: A498
UO-31 = tested on: UO-31
NCI-H522 = tested on: NCI-H522
DLD-1 = tested on: DLD-1
M19-MEL = tested on: M19-MEL
SW-620 = tested on: SW-620
A549 = tested on: A549
MOLT-4 = tested on: MOLT-4
SK-OV-3 = tested on: SK-OV-3
SF-539 = tested on: SF-539
SNB-19 = tested on: SNB-19
RPMI-8226 = tested on: RPMI-8226
SF-295 = tested on: SF-295
M14 = tested on: M14
IGROV-1 = tested on: IGROV-1
DU-145 = tested on: DU-145
MDA-MB-435 = tested on: MDA-MB-435
MDA-N = tested on: MDA-N
MCF7 = tested on: MCF7
Hs-578T = tested on: Hs-578T
T47D = tested on: T47D
BT-549 = tested on: BT-549
PC-3 = tested on: PC-3

With `CC1=C(C(=O)Nc2ccccc2C)C(c2ccc(C3C(C(=O)Nc4ccccc4C)=CNC=C3C(=O)Nc3ccccc3C)cc2)C(C(=O)Nc2ccccc2C)=C(C)N1` the GI50 (XF498) was 22.8 µM (inactive), the GI50 (HL-60) was 8 µM (inactive) and the GI50 (SF-268) was 11.4 µM (inactive). The GI50 (HOP-62) was 25.4 µM (inactive), the GI50 (UACC-62) was 12.7 µM (inactive) and the GI50 (DMS-273) was 20.7 µM (inactive). The GI50 (SK-MEL-2) was 15.7 µM (inactive), the GI50 (HOP-18) was 37 µM (inactive) and the GI50 (LXFL 529) was 10.9 µM (inactive). The GI50 (ACHN) was 16.4 µM (inactive), the GI50 (SN12C) was 14.8 µM (inactive) and the GI50 (HOP-92) was 22.4 µM (inactive). For the same molecule, the GI50 (SNB-75) was 19.5 µM (inactive), the GI50 (SK-MEL-28) was 17.9 µM (inactive) and the GI50 (KM12) was 14.1 µM (inactive). The GI50 (Malme-3M) was 19.1 µM (inactive), the GI50 (SR) was 3.22 µM (inactive) and the GI50 (HCT-116) was 19.5 µM (inactive). For the same molecule, the GI50 (DMS-114) was 23.3 µM (inactive), the GI50 (LOX IMVI) was 7.08 µM (inactive) and the GI50 (NCI-H460) was 21.4 µM (inactive). For the same molecule, the GI50 (RXF 393) was 47.2 µM (inactive), the GI50 (786-0) was 15.1 µM (inactive) and the GI50 (OVCAR-4) was 14.7 µM (inactive). The GI50 (U-251) was 12.2 µM (inactive), the GI50 (CAKI-1) was 21.3 µM (inactive) and the GI50 (HT-29) was 14.4 µM (inactive). For the same molecule, the GI50 (TK-10) was 49.7 µM (inactive), the GI50 (EKVX) was 17.9 µM (inactive) and the GI50 (OVCAR-8) was 25.6 µM (inactive). The GI50 (COLO 205) was 21 µM (inactive), the GI50 (HCT-15) was 16.8 µM and the GI50 (UACC-257) was 17.1 µM (inactive). The GI50 (NCI-H226) was 17 µM (inactive), the GI50 (OVCAR-5) was 21.6 µM (inactive) and the GI50 (SK-MEL-5) was 12.9 µM (inactive). The GI50 (HCC 2998) was 17.8 µM (inactive), the GI50 (NCI-H23) was 19.1 µM (inactive) and the GI50 (SNB-78) was 30.2 µM (inactive). The GI50 (CCRF-CEM) was 3.15 µM (inactive), the GI50 (KM-20L2) was 14.7 µM (inactive) and the GI50 (K562) was 9.27 µM (inactive). The GI50 (OVCAR-3) was 20.3 µM (inactive), the GI50 (A498) was 20.7 µM (inactive) and the GI50 (UO-31) was 18.7 µM (inactive). The GI50 (NCI-H522) was 6.68 µM (inactive), the GI50 (DLD-1) was 13.6 µM (inactive) and the GI50 (M19-MEL) was 23.8 µM (inactive). For the same molecule, the GI50 (SW-620) was 14.6 µM (inactive), the GI50 (A549) was 40.6 µM (inactive) and the GI50 (MOLT-4) was 4.5 µM (inactive). For the same molecule, the GI50 (SK-OV-3) was 27.3 µM (inactive), the GI50 (SF-539) was 14.4 µM (inactive) and the GI50 (SNB-19) was 19.8 µM (inactive). The GI50 (RPMI-8226) was 15.8 µM (inactive), the GI50 (SF-295) was 19.3 µM (inactive) and the GI50 (M14) was 16.8 µM (inactive). The GI50 (IGROV-1) was 18.6 µM (inactive).
With `O=C(Nc1ccc(Cl)cc1)NS(=O)(=O)c1ccc2c(c1)CCC2` [SULOFENUR] the GI50 (XF498) was 34.1 µM (inactive), the GI50 (HL-60) was 2.4 µM (inactive) and the GI50 (SF-268) was 49.2 µM (inactive). The GI50 (HOP-62) was 32.2 µM (inactive), the GI50 (UACC-62) was 23.9 µM (inactive) and the GI50 (DMS-273) was 32.4 µM (inactive). For the same molecule, the GI50 (SK-MEL-2) was 43.8 µM (inactive), the GI50 (HOP-18) was 42.8 µM (inactive) and the GI50 (DU-145) was 24 µM (inactive). For the same molecule, the GI50 (LXFL 529) was 31.5 µM (inactive), the GI50 (ACHN) was 29.4 µM (inactive) and the GI50 (SN12C) was 39.2 µM (inactive). The GI50 (MDA-MB-435) was 17.6 µM (inactive), the GI50 (SNB-75) was > 55.6 µM (inactive) and the GI50 (MDA-N) was 28 µM (inactive). For the same molecule, the GI50 (SK-MEL-28) was 43.9 µM (inactive), the GI50 (KM12) was 36.1 µM (inactive) and the GI50 (Malme-3M) was 24.5 µM (inactive). The GI50 (SR) was > 57 µM (inactive), the GI50 (HCT-116) was 26.2 µM (inactive) and the GI50 (DMS-114) was 35.2 µM (inactive). The GI50 (LOX IMVI) was 37.6 µM (inactive), the GI50 (NCI-H460) was 24.4 µM (inactive) and the GI50 (RXF 393) was 27.9 µM (inactive). For the same molecule, the GI50 (786-0) was 35.3 µM (inactive), the GI50 (OVCAR-4) was 54.8 µM (inactive) and the GI50 (U-251) was 30.7 µM (inactive). For the same molecule, the GI50 (CAKI-1) was 42.9 µM (inactive), the GI50 (HT-29) was 61.1 µM (inactive) and the GI50 (MCF7) was 24.1 µM (inactive). The GI50 (TK-10) was 40.5 µM (inactive), the GI50 (EKVX) was 36.5 µM (inactive) and the GI50 (OVCAR-8) was 40.8 µM (inactive). The GI50 (COLO 205) was 29.8 µM (inactive), the GI50 (Hs-578T) was 0.209 µM (active) and the GI50 (HCT-15) was 35.6 µM. The GI50 (UACC-257) was 50.7 µM (inactive), the GI50 (NCI-H226) was 37.9 µM (inactive) and the GI50 (OVCAR-5) was > 43.8 µM (inactive). For the same molecule, the GI50 (SK-MEL-5) was 26.9 µM (inactive), the GI50 (HCC 2998) was 31.6 µM (inactive) and the GI50 (NCI-H23) was 28.1 µM (inactive). The GI50 (T47D) was 16.4 µM (inactive), the GI50 (SNB-78) was > 47 µM (inactive) and the GI50 (CCRF-CEM) was 29.9 µM (inactive). The GI50 (KM-20L2) was 37.8 µM (inactive), the GI50 (BT-549) was 32.6 µM (inactive) and the GI50 (K562) was 10.2 µM (inactive). The GI50 (OVCAR-3) was 24.3 µM (inactive), the GI50 (A498) was 45 µM (inactive) and the GI50 (UO-31) was 25.1 µM (inactive). For the same molecule, the GI50 (NCI-H522) was 27.9 µM (inactive), the GI50 (DLD-1) was 44.4 µM (inactive) and the GI50 (M19-MEL) was > 68.7 µM (inactive). For the same molecule, the GI50 (SW-620) was 35.3 µM (inactive), the GI50 (A549) was 32.7 µM (inactive) and the GI50 (MOLT-4) was 26.4 µM (inactive). For the same molecule, the GI50 (SK-OV-3) was 25.8 µM (inactive), the GI50 (SF-539) was 28.3 µM (inactive) and the GI50 (SNB-19) was 40.9 µM (inactive). The GI50 (RPMI-8226) was 24.4 µM (inactive), the GI50 (SF-295) was 46.7 µM (inactive) and the GI50 (PC-3) was 19.1 µM (inactive). For the same molecule, the GI50 (M14) was 37.9 µM (inactive) and the GI50 (IGROV-1) was 12.3 µM (inactive).
With `CC[C@]1(O)C[C@H]2CN(CCc3c([nH]c4ccccc34)[C@@](C(=O)OC)(c3cc4c(cc3OC)N(C=O)[C@H]3[C@@](O)(C(=O)OC)[C@H](OC(C)=O)[C@]5(CC)C=CCN6CC[C@]43[C@@H]65)C2)C1` [VINCRISTINE SULFATE] the GI50 (XF498) was 0.135 µM (active), the GI50 (SF-268) was 0.172 µM (active) and the GI50 (HOP-62) was 0.225 µM (active). For the same molecule, the GI50 (DMS-273) was 0.1 µM (active), the GI50 (SK-MEL-2) was 0.132 µM (active) and the GI50 (HOP-18) was 20.8 µM (inactive). The GI50 (LXFL 529) was 0.1 µM (active), the GI50 (ACHN) was 0.176 µM (active) and the GI50 (HOP-92) was 0.137 µM (active). For the same molecule, the GI50 (SNB-75) was 0.43 µM (active), the GI50 (SK-MEL-28) was 1.31 µM (inactive) and the GI50 (Malme-3M) was 0.333 µM (active). For the same molecule, the GI50 (SR) was 0.1 µM (active), the GI50 (HCT-116) was 0.132 µM (active) and the GI50 (DMS-114) was 0.121 µM (active). For the same molecule, the GI50 (NCI-H460) was 0.105 µM (active), the GI50 (RXF 393) was 0.161 µM (active) and the GI50 (U-251) was 0.132 µM (active). For the same molecule, the GI50 (CAKI-1) was 0.14 µM (active), the GI50 (EKVX) was 2.36 µM (inactive) and the GI50 (COLO 205) was 0.133 µM (active). The GI50 (HCT-15) was 0.137 µM, the GI50 (OVCAR-5) was 22.2 µM (inactive) and the GI50 (NCI-H23) was 0.112 µM (active). For the same molecule, the GI50 (T47D) was 175 µM (inactive), the GI50 (SNB-78) was 0.163 µM (active) and the GI50 (CCRF-CEM) was 0.131 µM (active). For the same molecule, the GI50 (KM-20L2) was 0.106 µM (active), the GI50 (OVCAR-3) was 0.125 µM (active) and the GI50 (A498) was 0.126 µM (active). The GI50 (UO-31) was 2.1 µM (inactive), the GI50 (NCI-H522) was 0.119 µM (active) and the GI50 (DLD-1) was 0.106 µM (active). For the same molecule, the GI50 (M19-MEL) was 0.142 µM (active), the GI50 (SK-OV-3) was 0.288 µM (active) and the GI50 (SNB-19) was 0.131 µM (active).
